# Patent US20170035894A1, “DRUG DELIVERY CONJUGATES FOR TREATING RESISTANT CANCER AND FOR USE IN COMBINATION THERAPY” (ENDOCYTE, INC., priority 2014, published 2017)
# Assays:
# [1] = test system: M109 (lung carcinoma) tumors; experiment: Inhibition of tumor growth, s.c. M109 tumors; format: in vivo, nu/nu mice
# Experimental: METHOD. Inhibition of Tumor Growth in Mice. Four to seven week-old mice (Balb/c or nu/nu strains) were purchased from Harlan Sprague Dawley, Inc. (Indianapolis, Ind.). Normal rodent chow contains a high concentration of folic acid (6 mg/kg chow); accordingly, test animals were maintained on a folate-free diet (Harlan diet #TD00434) for about 1 week before tumor implantation to achieve serum folate concentrations close to the range of normal human serum, and during the Method. For tumor cell inoculation, 1×10^6 M109 cells (a syngeneic lung carcinoma) in Balb/c strain, or 1×10^6 KB cells in nu/nu strain, in 100 μL were injected in the subcutis of the dorsal medial area (right axilla). Tumors were measured in two perpendicular directions every 2-3 days using a caliper, and their volumes were calculated as 0.5×L×W^2, where L=measurement of longest axis in mm and W=measurement of axis perpendicular to L in mm.
# Test animals (5/group) ere injected i.v., generally three times a week TIW), for 3 weeks with varying doses, such as with 1 μmol/kg to 5 μmol/kg, of the drug delivery conjugate or with an equivalent dose volume of PBS (control), unless otherwise indicated. Dosing solutions were prepared fresh each day in PBS and administered through the lateral tail vein of the mice.
# [2] = test system: KB-CR2000 (cisplatin resistant) tumors; experiment: Cisplatin-resistant KB-CR2000 tumor model; format: in vivo, mice
# Excerpt: METHOD. Human cisplatin-resistant cell line. […] In addition, regrowth of the tumor was only observed in 1/5 test animals.
# MDA-MB-231 tumors = experiment: TNBC Tumor Assay, s.c. MDA-MB-231 xenografts; format: in vivo, nu/nu mice
# Excerpt: METHOD. TNBC Tumor Assay. Triple negative breast cancer (TNBC) is a subtype characterized by lack of gene expression for estrogen, progesterone and Her2/neu. TNBC is difficult to treat, and the resulting death rate in patients is reportedly disproportionately higher than for any other subtype of breast cancer. A TNBC xenograft model was generated in an analogous way to the KB and M109 models described herein by implanting MDA-MB-231 breast cancer cells in nu/nu mice. Dosing was initiated when the s.c. tumors have an average volume between 110-150 (generally 130) mm^3 (t0), typically 17 days post tumor inoculation (PTI). Test animals (5/group) were injected i.v., generally three times a week (TIW), for 2-3 weeks with varying doses, such as with 1 μmol/kg to 5 μmol/kg, of the drug delivery conjugate or with an equivalent dose volume of PBS (control), unless otherwise indicated. Dosing solutions were prepared fresh each day in PBS and administered through the lateral tail vein of the mice.
# LU2505 NSCLC tumors = experiment: Huprime NSCLC PDX tumor model; format: in vivo, Balb/c nu/nu mice; details: in combination with Docetaxel
# Experimental: (§1) Female Balb/c nu/nu mice were fed ad libitum with folate-deficient chow (Harlan diet #TD01013) for the duration of the experiment. Primary human NSCLC models LU1147 or LU2505 fragments (2-4 mm in diameter) were inoculated subcutaneously at the right flank of each mouse. Mice were randomized into experimental groups of 7 mice and test articles were injected through the lateral tail vein under sterile conditions in a volume of 200 μL of phosphate-buffered saline (PBS). These studies were performed at Crown Bioscience (Beijing) Inc., Ground Floor, Light Muller Building, Changping Sector of Zhongguancun Scientific Park, No. 21 Huoju Road, Changping District, Beijing, P.R. China.
# (§2) Growth of each s.c. tumor was followed by measuring the tumor two times per week until a volume of 1200 mm^3 was reached. Tumors were measured in two perpendicular directions using Vernier calipers, and their volumes were calculated as 0.5×L×W^2, where L=measurement of longest axis in mm and W=measurement of axis perpendicular to L in mm.
# LU1147 NSCLC tumors = experiment: Huprime NSCLC PDX tumor model; format: in vivo, Balb/c nu/nu mice; details: combined with Docetaxel (one dose of 15 mg/kg)
# Experimental: as §1, §2
# [3] = 2 μmol/kg i.v. TIW 2 weeks, nearly 70 day observation period
# [4] = EC1456 2 μmol/kg two times a week for two weeks
# [5] = EC1456 4 μmol/kg once a week for two weeks
smiles,measurement,setting,value
CCCC(=O)OCN(C(=O)[C@@H](NC(=O)[C@H]1CCCCN1C)C(C)CC)[C@H](C[C@@H](OC(C)=O)c1nc(C(=O)N[C@@H](Cc2ccc(O)cc2)C[C@H](C)C(=O)NNC(=O)OCCSSC[C@@H](NC(=O)[C@H](CCC(=O)NC[C@H](O)[C@@H](O)[C@H](O)[C@H](O)CO)NC(=O)[C@@H](CCC(=O)O)NC(=O)[C@H](CCC(=O)NC[C@H](O)[C@@H](O)[C@H](O)[C@H](O)CO)NC(=O)[C@@H](CCC(=O)O)NC(=O)[C@H](CCC(=O)NC[C@H](O)[C@@H](O)[C@H](O)[C@H](O)CO)NC(=O)CC[C@@H](NC(=O)c2ccc(NCc3cnc4nc(N)[nH]c(=O)c4n3)cc2)C(=O)O)C(=O)O)cs1)C(C)C (stereo in doubt) [EC1456],efficacy of co-administration of EC1456 and cisplatin,[1]; EC1456 2 μmol/kg TIW×2 + cisplatin 3 mg/kg BIW×2,enhanced technical effect over both monotherapies
same,efficacy of EC1456 alone compared to cisplatin,[1]; EC1456 2 μmol/kg TIW×2 vs cisplatin 3 mg/kg BIW×2,improved efficacy over cisplatin
same,"regrowth of the tumor, test animals",[2]; [3],1/5
same,test animals cured (no regrowth),[2]; [3],4/5
same,CRs,"[2]; 2 μmol/kg i.v. three times per week, 2 weeks",5/5
same,tumor regrowth,"MDA-MB-231 tumors; 2 μmol/kg i.v. TIW 2 weeks, observation window nearly 135 days",regrowth did not occur
same,complete responses (tumor volume reduced to zero),"MDA-MB-231 tumors; 2 μmol/kg intravenous, three times per week, 2 consecutive weeks",4 of 5
same,cures,LU2505 NSCLC tumors; [4],100%
same,cures,LU2505 NSCLC tumors; [5],100%
same,PRs,LU1147 NSCLC tumors; [4],5
same,cures,LU1147 NSCLC tumors; [4],2
same,PRs,LU1147 NSCLC tumors; [5],5
same,cures,LU1147 NSCLC tumors; [5],2
